Data from ChEMBL document CHEMBL4616626, “Design, synthesis and biological evaluation of HIV-1 protease inhibitors with morpholine derivatives as P2 ligands in combination with cyclopropyl as P1' ligand” (Bioorg Med Chem Lett, 2020).
pIC50: −log10 of the molar value.

Target: Human immunodeficiency virus type 1 protease (Human immunodeficiency virus 1, UniProt Q72874)
Assay: Inhibition of HIV1 protease by FRET assay

| pIC50 | Structure (SMILES) |
| --- | --- |
| 5.82 | C[C@@H]1CN(CC(=O)N[C@@H](Cc2ccccc2)[C@H](O)CN(C2CC2)S(=O)(=O)c2ccc(N)cc2)CCO1 |
| 6.72 | COc1ccc(S(=O)(=O)N(C[C@@H](O)[C@H](Cc2ccccc2)NC(=O)CN2CCO[C@H](C)C2)C2CC2)cc1 |
| 6.59 | COc1ccc(S(=O)(=O)N(C[C@@H](O)[C@H](Cc2ccccc2)NC(=O)N2CCOCC2)C2CC2)cc1 |
| 5.52 | C[C@@H]1CN(CC(=O)N[C@@H](Cc2ccccc2)[C@H](O)CN(C2CC2)S(=O)(=O)c2ccc(C(F)(F)F)cc2)CCO1 |
| 6.74 | COc1ccc(S(=O)(=O)N(C[C@@H](O)[C@H](Cc2ccccc2)NCC(=O)N2CCOCC2)C2CC2)cc1 |
| 5.27 | O=C(CN1CCOCC1)N[C@@H](Cc1ccccc1)[C@H](O)CN(C1CC1)S(=O)(=O)c1ccc([N+](=O)[O-])cc1 |
| 6.40 | C[C@H]1CN(CC(=O)N[C@@H](Cc2ccccc2)[C@H](O)CN(C2CC2)S(=O)(=O)c2ccc(C(F)(F)F)cc2)CCO1 |
| 5.87 | C[C@H]1CN(CC(=O)N[C@@H](Cc2ccccc2)[C@H](O)CN(C2CC2)S(=O)(=O)c2ccc(N)cc2)CCO1 |
| 6.24 | C[C@H]1CN(CC(=O)N[C@@H](Cc2ccccc2)[C@H](O)CN(C2CC2)S(=O)(=O)c2ccc([N+](=O)[O-])cc2)CCO1 |
| 5.90 | COc1ccc(S(=O)(=O)N(C[C@@H](O)[C@H](Cc2ccccc2)NC(=O)CN2CCO[C@@H](C)C2)C2CC2)cc1 |
| 6.77 | COc1ccc(S(=O)(=O)N(C[C@@H](O)[C@H](Cc2ccccc2)NCCN2CCOCC2)C2CC2)cc1 |
| 7.27 to 7.28 | COc1ccc(S(=O)(=O)N(C[C@@H](O)[C@H](Cc2ccccc2)NC(=O)OCCN2CCOCC2)C2CC2)cc1 |
| 5.98 | COc1ccc(S(=O)(=O)N(C[C@@H](O)[C@H](Cc2ccccc2)NC(=O)CN2CCOCC2)C2CC2)cc1 |
| < 5.00 | Nc1ccc(S(=O)(=O)N(C[C@@H](O)[C@H](Cc2ccccc2)NC(=O)CN2CCOCC2)C2CC2)cc1 |
| 6.03 | C[C@@H]1CN(CC(=O)N[C@@H](Cc2ccccc2)[C@H](O)CN(C2CC2)S(=O)(=O)c2ccc([N+](=O)[O-])cc2)CCO1 |

The next lines start with the molecule.

| Structure (SMILES) | pIC50 |
| --- | --- |
| O=C(CN[C@@H](Cc1ccccc1)[C@H](O)CN(C1CC1)S(=O)(=O)c1ccc([N+](=O)[O-])cc1)N1CCOCC1 | < 5.00 |
| Nc1ccc(S(=O)(=O)N(C[C@@H](O)[C@H](Cc2ccccc2)NCC(=O)N2CCOCC2)C2CC2)cc1 | 5.94 |
| O=S(=O)(c1ccc(C(F)(F)F)cc1)N(C[C@@H](O)[C@H](Cc1ccccc1)NCCN1CCOCC1)C1CC1 | 5.77 |
| O=C(N[C@@H](Cc1ccccc1)[C@H](O)CN(C1CC1)S(=O)(=O)c1ccc([N+](=O)[O-])cc1)OCCN1CCOCC1 | 7.10 |
| Nc1ccc(S(=O)(=O)N(C[C@@H](O)[C@H](Cc2ccccc2)NC(=O)N2CCOCC2)C2CC2)cc1 | 6.19 |
| O=C(CN1CCOCC1)N[C@@H](Cc1ccccc1)[C@H](O)CN(C1CC1)S(=O)(=O)c1ccc(C(F)(F)F)cc1 | 6.40 |
| Nc1ccc(S(=O)(=O)N(C[C@@H](O)[C@H](Cc2ccccc2)NC(=O)OCCN2CCOCC2)C2CC2)cc1 | 7.21 |
| O=[N+]([O-])c1ccc(S(=O)(=O)N(C[C@@H](O)[C@H](Cc2ccccc2)NCCN2CCOCC2)C2CC2)cc1 | 6.21 |
| O=C(N[C@@H](Cc1ccccc1)[C@H](O)CN(C1CC1)S(=O)(=O)c1ccc(C(F)(F)F)cc1)OCCN1CCOCC1 | 6.92 |
| O=C(CN[C@@H](Cc1ccccc1)[C@H](O)CN(C1CC1)S(=O)(=O)c1ccc(C(F)(F)F)cc1)N1CCOCC1 | 5.90 |
| O=C(N[C@@H](Cc1ccccc1)[C@H](O)CN(C1CC1)S(=O)(=O)c1ccc([N+](=O)[O-])cc1)N1CCOCC1 | 6.10 |
| O=C(N[C@@H](Cc1ccccc1)[C@H](O)CN(C1CC1)S(=O)(=O)c1ccc(C(F)(F)F)cc1)N1CCOCC1 | 7.33 |
| Nc1ccc(S(=O)(=O)N(C[C@@H](O)[C@H](Cc2ccccc2)NCCN2CCOCC2)C2CC2)cc1 | 6.03 |
